Test results taken from patent publication US12479804B2, “Herbicidal compounds” (SYNGENTA CROP PROTECTION AG, priority 2019, dated 2025).

Tests used:
Experiment in all cases: Glasshouse herbicidal test, pre- and post-emergence, percentage damage to the plant
Type in all cases: in vivo
Lolium perenne (LOLPE) = details: 250 g/h, evaluated after 13 days; for LOLPE POST percentage damage caused to the plant (five-point scale): post-emergence; for LOLPE PRE percentage damage caused to the plant (five-point scale): pre-emergence
Procedure: (§1) Seeds of a variety of test species are sown in standard soil in pots (Lolium perenne (LOLPE), Setaria faberi (SETFA), Alopecurus myosuroides (ALOMY), Echinochloa crus-galli (ECHCG), Avena fatua (AVEFA)). After cultivation for one day (pre-emergence) or after 8 days cultivation (post-emergence) under controlled conditions in a glasshouse (at 24/16° C., day/night; 14 hours light; 65% humidity), the plants are sprayed with an aqueous spray solution derived from the formulation of the technical active ingredient in acetone/water (50:50) solution containing 0.5% Tween 20 (polyoxyethelyene sorbitan monolaurate, CAS RN 9005-64-5). Compounds are applied at 250 g/h. The test plants are then grown in a glasshouse under controlled conditions in a glasshouse (at 24/16° C., day/night; 14 hours light; 65% humidity) and watered twice daily. After 13 days for pre and post-emergence, the test is evaluated for the percentage damage caused to the plant. The biological activities are shown in the following table on a five-point scale (5=80-100%; 4=60-79%; 3=40-59%; 2=20-39%; 1=0-19%).

Avena fatua (AVEFA) = details: 250 g/h, evaluated after 13 days; for AVEFA POST percentage damage caused to the plant (five-point scale): post-emergence; for AVEFA PRE percentage damage caused to the plant (five-point scale): pre-emergence
Procedure: as §1

[1] = system: Echinochloa crus-galli (ECHCG); details: 250 g/h, evaluated after 13 days; for ECHCG POST percentage damage caused to the plant (five-point scale): post-emergence; for ECHCG PRE percentage damage caused to the plant (five-point scale): pre-emergence
Procedure: as §1

[2] = system: Alopecurus myosuroides (ALOMY); details: 250 g/h, evaluated after 13 days; for ALOMY POST percentage damage caused to the plant (five-point scale): post-emergence; for ALOMY PRE percentage damage caused to the plant (five-point scale): pre-emergence
Procedure: as §1

Setaria faberi (SETFA) = details: 250 g/h, evaluated after 13 days; for SETFA POST percentage damage caused to the plant (five-point scale): post-emergence; for SETFA PRE percentage damage caused to the plant (five-point scale): pre-emergence
Procedure: as §1

| SMILES | LOLPE POST percentage damage caused to the plant (five-point scale) (Lolium perenne (LOLPE)) | LOLPE PRE percentage damage caused to the plant (five-point scale) (Lolium perenne (LOLPE)) | AVEFA POST percentage damage caused to the plant (five-point scale) (Avena fatua (AVEFA)) | AVEFA PRE percentage damage caused to the plant (five-point scale) (Avena fatua (AVEFA)) | ECHCG POST percentage damage caused to the plant (five-point scale) [1] | ECHCG PRE percentage damage caused to the plant (five-point scale) [1] | ALOMY POST percentage damage caused to the plant (five-point scale) [2] | ALOMY PRE percentage damage caused to the plant (five-point scale) [2] | SETFA POST percentage damage caused to the plant (five-point scale) (Setaria faberi (SETFA)) | SETFA PRE percentage damage caused to the plant (five-point scale) (Setaria faberi (SETFA)) |
| --- | --- | --- | --- | --- | --- | --- | --- | --- | --- | --- |
| CC#Cc1cc(C)c(C2C(=O)CC3(CCC(=O)N(CC(=O)OC)C3)CC2=O)c(C)c1 (stereo not shown) [Compound A12] | 5 (5=80-100%) | 5 (5=80-100%) | 5 (5=80-100%) | 3 (3=40-59%) | 5 (5=80-100%) | 5 (5=80-100%) | 2 (2=20-39%) | 5 (5=80-100%) | 5 (5=80-100%) | 5 (5=80-100%) |
| CC#Cc1cc(C)c(C2C(=O)CC3(CCC(=O)NC3)CC2=O)c(C)c1 (stereo not shown) [Compound A10] | 5 (5=80-100%) | 5 (5=80-100%) | 5 (5=80-100%) | 5 (5=80-100%) | 5 (5=80-100%) | 5 (5=80-100%) | 5 (5=80-100%) | 5 (5=80-100%) | 5 (5=80-100%) | 5 (5=80-100%) |
| CC#Cc1cc(C)c(C2C(=O)CC3(CCN(S(=O)(=O)CC)C3)CC2=O)c(C)c1 (stereo not shown) [Compound A7] | 5 (5=80-100%) | 5 (5=80-100%) | 5 (5=80-100%) | 5 (5=80-100%) | 5 (5=80-100%) | 5 (5=80-100%) | 5 (5=80-100%) | 5 (5=80-100%) | 5 (5=80-100%) | 5 (5=80-100%) |
| CC#Cc1cc(C)c(C2C(=O)CC3(CCCN(C(C)=O)CC3)CC2=O)c(C)c1 (stereo not shown) [Compound A9] | 5 (5=80-100%) | 5 (5=80-100%) | 5 (5=80-100%) | 5 (5=80-100%) | 5 (5=80-100%) | 5 (5=80-100%) | 5 (5=80-100%) | 5 (5=80-100%) | 5 (5=80-100%) | 5 (5=80-100%) |
